Results reported in publication PMC3652196, “Pharmacometrics of 3-Methoxypterostilbene: A Component of Traditional Chinese Medicinal Plants” (Evidence-based Complementary and Alternative Medicine : eCAM, 2013).

Tests used:
COX-2 = molecular target: T1, COX-2 (Homo sapiens, UniProt P35354); assay: COX inhibitor screening assay (EIA of prostaglandins), COX-2; type: biochemical
T1 construct: purchased Cayman Chemical 560131
T1 sequence (P35354 18-604): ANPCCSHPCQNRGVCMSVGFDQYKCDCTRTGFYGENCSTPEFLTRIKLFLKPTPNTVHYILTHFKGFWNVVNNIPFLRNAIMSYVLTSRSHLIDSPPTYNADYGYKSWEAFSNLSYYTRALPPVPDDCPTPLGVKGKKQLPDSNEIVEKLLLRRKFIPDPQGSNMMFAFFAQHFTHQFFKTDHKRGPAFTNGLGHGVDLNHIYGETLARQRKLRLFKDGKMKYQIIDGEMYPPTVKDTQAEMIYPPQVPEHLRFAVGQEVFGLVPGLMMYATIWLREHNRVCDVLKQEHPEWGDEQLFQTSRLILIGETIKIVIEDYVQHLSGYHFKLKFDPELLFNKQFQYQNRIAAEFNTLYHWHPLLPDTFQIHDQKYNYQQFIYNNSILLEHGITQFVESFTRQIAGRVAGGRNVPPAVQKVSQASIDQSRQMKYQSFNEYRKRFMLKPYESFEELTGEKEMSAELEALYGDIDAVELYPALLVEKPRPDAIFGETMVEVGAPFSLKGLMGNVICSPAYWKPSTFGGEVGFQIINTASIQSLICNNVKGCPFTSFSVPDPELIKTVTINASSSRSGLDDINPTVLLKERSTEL
Description: The inhibition of COX-1 and -2 by 3-methoxypterostilbene was measured through the use of a three-day commercial assay kit. The assay relied on the quantification of the prostanoid product based on enzyme immunoassay (EIA), which uses a nonspecific antibody for prostaglandins (PGs). The constant concentration of the PG-AChE-tracer and the varying concentrations of the PGs available to bind to the antiserum is inversely proportional to the concentration of free PGs in the well. For this assay, 3-methoxypterostilbene was dissolved in DMSO over the concentration range of 1–250 μg/mL. Ibuprofen and etodolac, COX-2 preferential NSAIDs, were dissolved in DMSO and used as controls over the concentration range of 1–250 μg/mL. Reagents were prepared according to the manufacturer's instructions that accompanied the kit. The ELISA plate for this purpose was read at an absorbance of 415 nm within 10 minutes at room temperature (23 ± 1°C) using the Synergy HT multiwell plate reader and Gen5 data analysis software (Biotek Instruments Inc., Winooski, VT, USA). The assay was performed in quadruplet. For more information regarding the assay protocol, please refer to the instructions for the kit (COX Inhibitor Screening Assay Kit from Cayman Chemical—Cat. no. 560131).

9 KB = tested on: 9 KB; design: method as in PMID 3598597; settings: cited from earlier work

Question: For `COc1cc(/C=C/c2ccc(O)c(OC)c2)cc(OC)c1` [3-methoxypterostilbene, trans-3,3′-5-trimethoxy-4′-hydro-xystilbene], which “COX-2 inhibition versus NSAIDs (in words)” value (COX-2; 10 μg/mL) is on record?
Answer: statistically greater inhibition (P < 0.05) than etodolac at 1 μg/mL and ibuprofen at 250 μg/mL

Question: And the “COX-2 inhibitory activity (in words)” value (COX-2; 1, 10 and 250 μg/mL)?
Answer: moderate inhibition of COX-2

Question: What about the “Activity in 9 KB cytotoxicity assay compared with piceatannol” value (9 KB) of the same compound?
Answer: significantly greater activity
